# Experimental data taken from patent US20100094001A1, “C[…]-IMPROVED CH[…] DERIVATIVE AND PROCESS FOR PRODUCING SAME” (Eisai R&D Management Co., Ltd., priority 2007, published 2010).
# Assay: Stability experiment for the addition of tri-n-butylamine: sealed storage at 40-50° C., content (purity) by 1H-NMR
# Type: physicochemical
# Method: From the point of view of securing storage stability, for the amount of the first tertiary amine added, at least 2.0 mol % is added based on Compound (6), preferably at least 3.0 mol %, more preferably at least 4.0 mol %, and even more preferably at least 5.0 mol %. Note that evaluation of storage stability can be carried out by calculation of peak area derived from Compound (6) by gas chromatography or high performance liquid chromatography or calculation of integration value by 1H-NMR or P-NMR measurement before and after storage.
# Potassium di-tert-butyl phosphate (6 g), dipotassium hydrogenphosphate (16.6 g), tetrabutylammonium hydrogen sulfate (0.81 g), tert-butyl methyl ether (28 mL) and water (21 mL) were added in a 100 mL two-neck round bottom flask equipped with a thermometer, and stirred under cooling with a water bath. At an internal temperature of 21° C., a solution of chloromethyl chlorosulfonate (5.88 g) dissolved in tert-butyl methyl ether (5.88 mL) was added dropwise over two hours at an internal temperature of 25° C. or lower. After termination of the drop wise addition, the solution was stirred for two hours, water (21 mL) and tert-butyl methyl ether (28 mL) were added thereto, the lower layer was separated and the organic layer was washed with an aqueous solution of 2M dipotassium hydrogen phosphate (21 mL). After washing twice with water (21 mL), bath temperature was set to 35° C., and the solution was concentrated under a reduced pressure to obtain 5.38 g of the title compound (yield: 86%). […]
# As a result, contents (purity) of respectively 92% and 96% prior to storage were 89% and 70% after sealed storage at 40° C. for 12 hours and further at 50° C. for 12 hours, and were 87% and 0% (completely degraded) after sealed storage further at 50° C. for 10 hours, such that the one added with tri-n-butylamine was stable. The content (purity) was calculated by 1H-NMR measurements with 4-thiomethyl acetophenone as internal standard substance.
compound,measurement,setting,value
"CC(C)(C)OP(=O)(OCCl)OC(C)(C)C [Not added, di-tert-butyl chloromethyl phosphate]",Content (%),Initial (prior to storage),96%
same,Content (%),Sealed storage at 40° C. for 12 hours then further at 50° C. for 12 hours,70%
same,Content (%),Sealed storage further at 50° C. for 10 hours (after 40° C. 12 hours and 50° C. 12 hours),0%
